The values that follow come from ChEMBL document CHEMBL5113500, “New brefeldin A-cinnamic acid ester derivatives as potential antitumor agents: Design, synthesis and biological evaluation” (Eur J Med Chem, 2022).

Molecules are shown by their SMILES.

One assay has as its system ECa-109 cell line. Briefly: Antiproliferative activity against human Eca-109 cells measured after 72 hrs by MTT assay. It is filed as functional, cell-based. To be noted: ECa-109, 72 h. For orientation: Tetrazolium dyes change colour on reduction, which living cells bring about.
`C[C@H]1CCC/C=C/[C@@H]2C[C@H](OC(=O)/C=C/c3ccccc3)C[C@H]2[C@H](O)/C=C/C(=O)O1`: the IC50 (as a rule, the concentration needed to halve the response being measured) was determined as 1210 nM.
With `C[C@H]1CCC/C=C/[C@@H]2C[C@H](O)C[C@H]2[C@H](OC(=O)/C=C/c2ccc(C(F)(F)F)cc2)/C=C/C(=O)O1`, it took 600 nM to reach half-maximal inhibition (IC50).
For `COc1cc(/C=C/C(=O)O[C@@H]2/C=C/C(=O)O[C@@H](C)CCC/C=C/[C@@H]3C[C@H](O)C[C@H]32)cc(OC)c1OC`, inhibition was half-maximal at 2100 nM (IC50).
`C[C@H]1CCC/C=C/[C@@H]2C[C@H](O)C[C@H]2[C@H](OC(=O)/C=C/c2ccccc2Br)/C=C/C(=O)O1` yielded an IC50 of 1140 nM.
Regarding `C[C@H]1CCC/C=C/[C@@H]2C[C@H](O)C[C@H]2[C@H](OC(=O)/C=C/c2cccc(F)c2)/C=C/C(=O)O1`, the half-inhibitory concentration (IC50) came to 950 nM.
For the compound `Cc1ccccc1/C=C/C(=O)O[C@@H]1/C=C/C(=O)O[C@@H](C)CCC/C=C/[C@@H]2C[C@H](O)C[C@H]21`, the half-inhibitory concentration (IC50) worked out at 2680 nM.
As for `Cc1cccc(/C=C/C(=O)O[C@@H]2C[C@H]3[C@H](O)/C=C/C(=O)O[C@@H](C)CCC/C=C/[C@@H]3C2)c1`, the IC50 was 2100 nM.
With `Cc1ccc(/C=C/C(=O)O[C@@H]2/C=C/C(=O)O[C@@H](C)CCC/C=C/[C@@H]3C[C@H](O)C[C@H]32)cc1`, inhibition was half-maximal at 3590 nM (IC50).

A further assay relates to Bel-7402. Briefly: Antiproliferative activity against human Bel-7402 cells measured after 72 hrs by MTT assay. The class given is functional, cell-based. As to conditions: Bel-7402, 72 h.
Regarding `C[C@H]1CCC/C=C/[C@@H]2C[C@H](OC(=O)/C=C/c3ccccc3)C[C@H]2[C@H](O)/C=C/C(=O)O1`, inhibition was half-maximal at 1110 nM (IC50).
The same measure, in the same setting: the figure for `C[C@H]1CCC/C=C/[C@@H]2C[C@H](O)C[C@H]2[C@H](OC(=O)/C=C/c2ccc(C(F)(F)F)cc2)/C=C/C(=O)O1` is 610 nM; for `COc1cc(/C=C/C(=O)O[C@@H]2/C=C/C(=O)O[C@@H](C)CCC/C=C/[C@@H]3C[C@H](O)C[C@H]32)cc(OC)c1OC` it is 1370 nM; for `C[C@H]1CCC/C=C/[C@@H]2C[C@H](O)C[C@H]2[C@H](OC(=O)/C=C/c2ccccc2Br)/C=C/C(=O)O1` it is 640 nM.
Compound `C[C@H]1CCC/C=C/[C@@H]2C[C@H](O)C[C@H]2[C@H](OC(=O)/C=C/c2cccc(F)c2)/C=C/C(=O)O1` displayed a half-maximal inhibitory concentration (IC50) of 810 nM.
The compound `Cc1ccccc1/C=C/C(=O)O[C@@H]1/C=C/C(=O)O[C@@H](C)CCC/C=C/[C@@H]2C[C@H](O)C[C@H]21` gave a half-maximal inhibitory concentration (IC50) of 1770 nM.
In turn, `Cc1cccc(/C=C/C(=O)O[C@@H]2C[C@H]3[C@H](O)/C=C/C(=O)O[C@@H](C)CCC/C=C/[C@@H]3C2)c1` yielded an IC50 of 3290 nM.
On the same count and under the same terms, the figure for `Cc1ccc(/C=C/C(=O)O[C@@H]2/C=C/C(=O)O[C@@H](C)CCC/C=C/[C@@H]3C[C@H](O)C[C@H]32)cc1` is 970 nM.

The next assay concerns PANC-1. As to the kind of experiment: Antiproliferative activity against human PANC-1 cells measured after 72 hrs by MTT assay. It is filed as functional, cell-based. As to conditions: PANC-1, 72 h.
Take `C[C@H]1CCC/C=C/[C@@H]2C[C@H](OC(=O)/C=C/c3ccccc3)C[C@H]2[C@H](O)/C=C/C(=O)O1`: the 50% inhibitory concentration (IC50) worked out at 570 nM.
Compound `C[C@H]1CCC/C=C/[C@@H]2C[C@H](O)C[C@H]2[C@H](OC(=O)/C=C/c2ccc(C(F)(F)F)cc2)/C=C/C(=O)O1` yielded an IC50 of 580 nM.
With `COc1cc(/C=C/C(=O)O[C@@H]2/C=C/C(=O)O[C@@H](C)CCC/C=C/[C@@H]3C[C@H](O)C[C@H]32)cc(OC)c1OC`, the IC50 is 820 nM.
`C[C@H]1CCC/C=C/[C@@H]2C[C@H](O)C[C@H]2[C@H](OC(=O)/C=C/c2ccccc2Br)/C=C/C(=O)O1` showed an IC50 of 510 nM.
`C[C@H]1CCC/C=C/[C@@H]2C[C@H](O)C[C@H]2[C@H](OC(=O)/C=C/c2cccc(F)c2)/C=C/C(=O)O1` showed an IC50 of 360 nM.
Still for that read-out and setting: the figure for `Cc1ccccc1/C=C/C(=O)O[C@@H]1/C=C/C(=O)O[C@@H](C)CCC/C=C/[C@@H]2C[C@H](O)C[C@H]21` is 630 nM.
Compound `Cc1cccc(/C=C/C(=O)O[C@@H]2C[C@H]3[C@H](O)/C=C/C(=O)O[C@@H](C)CCC/C=C/[C@@H]3C2)c1` returned a half-maximal inhibitory concentration (IC50) of 360 nM.
In turn, `Cc1ccc(/C=C/C(=O)O[C@@H]2/C=C/C(=O)O[C@@H](C)CCC/C=C/[C@@H]3C[C@H](O)C[C@H]32)cc1` gave an IC50 of 350 nM.

In a further assay the test system is HeLa. As to the kind of experiment: Antiproliferative activity against human HeLa cells measured after 72 hrs by MTT assay. The class given is functional, cell-based.
Settings: not given
`C[C@H]1CCC/C=C/[C@@H]2C[C@H](OC(=O)/C=C/c3ccccc3)C[C@H]2[C@H](O)/C=C/C(=O)O1` had an IC50 of 530 nM.
As for `C[C@H]1CCC/C=C/[C@@H]2C[C@H](O)C[C@H]2[C@H](OC(=O)/C=C/c2ccc(C(F)(F)F)cc2)/C=C/C(=O)O1`, the IC50 stood at 340 nM.
Compound `COc1cc(/C=C/C(=O)O[C@@H]2/C=C/C(=O)O[C@@H](C)CCC/C=C/[C@@H]3C[C@H](O)C[C@H]32)cc(OC)c1OC` gave an IC50 of 1580 nM.
Turning to `C[C@H]1CCC/C=C/[C@@H]2C[C@H](O)C[C@H]2[C@H](OC(=O)/C=C/c2ccccc2Br)/C=C/C(=O)O1`, the IC50 is 740 nM.
`C[C@H]1CCC/C=C/[C@@H]2C[C@H](O)C[C@H]2[C@H](OC(=O)/C=C/c2cccc(F)c2)/C=C/C(=O)O1` displayed an IC50 of 700 nM.
The same measure, in the same setting: the figure for `Cc1ccccc1/C=C/C(=O)O[C@@H]1/C=C/C(=O)O[C@@H](C)CCC/C=C/[C@@H]2C[C@H](O)C[C@H]21` is 750 nM; for `Cc1cccc(/C=C/C(=O)O[C@@H]2C[C@H]3[C@H](O)/C=C/C(=O)O[C@@H](C)CCC/C=C/[C@@H]3C2)c1` it is 1120 nM.
The compound `Cc1ccc(/C=C/C(=O)O[C@@H]2/C=C/C(=O)O[C@@H](C)CCC/C=C/[C@@H]3C[C@H](O)C[C@H]32)cc1` had a half-inhibitory concentration (IC50) of 1310 nM.

Another assay concerns HepG2. Briefly: Antiproliferative activity against human HepG2 cells measured after 72 hrs by MTT assay. To be noted: HepG2, 72 h. It is filed as functional, cell-based.
`C[C@H]1CCC/C=C/[C@@H]2C[C@H](OC(=O)/C=C/c3ccccc3)C[C@H]2[C@H](O)/C=C/C(=O)O1` had a half-inhibitory concentration (IC50) of 1250 nM.
For the compound `C[C@H]1CCC/C=C/[C@@H]2C[C@H](O)C[C@H]2[C@H](OC(=O)/C=C/c2ccc(C(F)(F)F)cc2)/C=C/C(=O)O1`, the midpoint of inhibition, the IC50, lay at 510 nM.
As for `COc1cc(/C=C/C(=O)O[C@@H]2/C=C/C(=O)O[C@@H](C)CCC/C=C/[C@@H]3C[C@H](O)C[C@H]32)cc(OC)c1OC`, the IC50 amounted to 720 nM.
Regarding `C[C@H]1CCC/C=C/[C@@H]2C[C@H](O)C[C@H]2[C@H](OC(=O)/C=C/c2ccccc2Br)/C=C/C(=O)O1`, it took 520 nM to reach half-maximal inhibition (IC50).
In the case of `C[C@H]1CCC/C=C/[C@@H]2C[C@H](O)C[C@H]2[C@H](OC(=O)/C=C/c2cccc(F)c2)/C=C/C(=O)O1`, half-maximal inhibition (IC50) required 490 nM.
The compound `Cc1ccccc1/C=C/C(=O)O[C@@H]1/C=C/C(=O)O[C@@H](C)CCC/C=C/[C@@H]2C[C@H](O)C[C@H]21` gave a half-maximal inhibitory concentration (IC50) of 1860 nM.
Still for that read-out and setting: the result for `Cc1cccc(/C=C/C(=O)O[C@@H]2C[C@H]3[C@H](O)/C=C/C(=O)O[C@@H](C)CCC/C=C/[C@@H]3C2)c1` reads 1890 nM; that for `Cc1ccc(/C=C/C(=O)O[C@@H]2/C=C/C(=O)O[C@@H](C)CCC/C=C/[C@@H]3C[C@H](O)C[C@H]32)cc1`, 1500 nM.

In another assay the test system is HepG2. Briefly: Antiproliferative activity against human HepG2 cells assessed as cell growth inhibition at 1 uM measured after 72 hrs by MTT assay relative to control. To be noted: read-out: GI. The class given is functional.
With `C[C@H]1CCC/C=C/[C@@H]2C[C@H](OC(=O)/C=C/c3ccccc3)C[C@H]2[C@H](O)/C=C/C(=O)O1`, the inhibition of growth at 1 µM is 62.9%.
`C[C@H]1CCC/C=C/[C@@H]2C[C@H](O)C[C@H]2[C@H](OC(=O)/C=C/c2ccc(C(F)(F)F)cc2)/C=C/C(=O)O1`: the inhibition of growth at 1 µM turned out to be 74.9%.
`COc1cc(/C=C/C(=O)O[C@@H]2/C=C/C(=O)O[C@@H](C)CCC/C=C/[C@@H]3C[C@H](O)C[C@H]32)cc(OC)c1OC`: the inhibition of growth at 1 µM came out at 65.1%.
`C[C@H]1CCC/C=C/[C@@H]2C[C@H](O)C[C@H]2[C@H](OC(=O)/C=C/c2ccccc2Br)/C=C/C(=O)O1`: the inhibition of growth at 1 µM was determined as 72.5%.
In the case of `C[C@H]1CCC/C=C/[C@@H]2C[C@H](O)C[C@H]2[C@H](OC(=O)/C=C/c2cccc(F)c2)/C=C/C(=O)O1`, the inhibition of growth at 1 µM was 68.3%.
Take `Cc1ccccc1/C=C/C(=O)O[C@@H]1/C=C/C(=O)O[C@@H](C)CCC/C=C/[C@@H]2C[C@H](O)C[C@H]21`: the inhibition of growth at 1 µM was found to be 37.1%.
On to `Cc1cccc(/C=C/C(=O)O[C@@H]2C[C@H]3[C@H](O)/C=C/C(=O)O[C@@H](C)CCC/C=C/[C@@H]3C2)c1`, for which the inhibition of growth at 1 µM was 34.7%.
Take `Cc1ccc(/C=C/C(=O)O[C@@H]2/C=C/C(=O)O[C@@H](C)CCC/C=C/[C@@H]3C[C@H](O)C[C@H]32)cc1`: the inhibition of growth at 1 µM was found to be 64%.
